Source: PubChem BioAssay AID330 (DTP/NCI, 2004)
Where “and” joins values, the source holds several entries; their conditions need not be identical. Equal values may be shown once. Toxic doses and inconclusive results are not listed. How the source made its calls: active means survival T/C of 150% or more; inactive means T/C below 125% in these data.

Tested on: P388 leukemia ip, CD2F1 mice, survival T/C
Experiment: NCI In Vivo Anticancer Drug Screen. Data for tumor model P388 Leukemia (intraperitoneal) in CD2F1 (CDF1) mice
Settings: endpoint: median survival time, higher = longer survival
Procedure, shortened: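 Mice carrying the transplanted tumor received test compound or vehicle. Survival was recorded in each group, and the value is the treated-group measurement divided by that of the vehicle-treated control group.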

[1] = dose: 50.0 mg/kg/injection, schedule: Q01DX005 (ip), vehicle: Klucel (hydroxypropylcellulose) (HPC)
[2] = dose: 100.0 mg/kg/injection, schedule: Q01DX005 (ip), vehicle: Klucel (hydroxypropylcellulose) (HPC)
[3] = dose: 200.0 mg/kg/injection, schedule: Q01DX005 (ip), vehicle: Klucel (hydroxypropylcellulose) (HPC)
[4] = dose: 50.0 mg/kg/injection, schedule: Q01DX009 (ip), vehicle: Klucel (hydroxypropylcellulose) (HPC)
[5] = dose: 100.0 mg/kg/injection, schedule: Q01DX009 (ip), vehicle: Klucel (hydroxypropylcellulose) (HPC)
[6] = dose: 12.5 mg/kg/injection, schedule: Q01DX009 (ip), vehicle: water
[7] = dose: 25.0 mg/kg/injection, schedule: Q01DX009 (ip), vehicle: water
[8] = dose: 50.0 mg/kg/injection, schedule: Q01DX009 (ip), vehicle: saline
[9] = dose: 50.0 mg/kg/injection, schedule: Q01DX009 (ip), vehicle: water
[10] = dose: 100.0 mg/kg/injection, schedule: Q01DX009 (ip), vehicle: saline
[11] = dose: 1.56 mg/kg/injection, schedule: Q01DX009 (ip), vehicle: saline
[12] = dose: 3.12 mg/kg/injection, schedule: Q01DX009 (ip), vehicle: saline
[13] = dose: 6.25 mg/kg/injection, schedule: Q01DX009 (ip), vehicle: saline

Measured: T/C

COc1ccc(CC2c3cc(OC)c(OC)c(OC)c3CC[N+]2(C)C)cc1Oc1ccc(CC2c3cc4c(c(OC)c3CC[N+]2(C)C)OCO4)cc1 (centres undefined)
inactive: dose: 1.56 mg/kg/injection, schedule: Q04DX003 (ip), vehicle: saline 99 % of control | dose: 3.13 mg/kg/injection, schedule: Q04DX003 (ip), vehicle: saline 101 % of control

COC(=O)c1c(C(=O)OC)c(-c2ccccc2)n(CCn2c(-c3ccccc3)c(C(=O)OC)c(C(=O)OC)c2-c2ccccc2)c1-c1ccccc1
inactive: [1] 96 % of control | [2] 93 % of control | [3] 95 % of control

Cc1cc2ccccc2nc1C#N
inactive: dose: 25.0 mg/kg/injection, schedule: Q01DX005 (ip), vehicle: Klucel (hydroxypropylcellulose) (HPC) 105 % of control | [1] 102 % of control | [2] 101 % of control | [3] 109 % of control

N#CCCNNc1ccccc1
inactive: dose: 50.0 mg/kg/injection, schedule: Q01DX001 (ip), vehicle: saline 100 % of control | dose: 100.0 mg/kg/injection, schedule: Q01DX001 (ip), vehicle: saline 106 % of control | dose: 200.0 mg/kg/injection, schedule: Q01DX001 (ip), vehicle: saline 97 % of control

CC(C)N(C)N=Nc1ccc(C(N)=O)cc1
inactive: [4] 114 % of control and 120 % of control | [5] 113 % of control

O=C(Nc1ccccc1)OCC(Cl)(Cl)Cl
inactive: dose: 100.0 mg/kg/injection, schedule: Q01DX009 (ip), vehicle: saline with Tween-80 100 % of control | dose: 200.0 mg/kg/injection, schedule: Q01DX009 (ip), vehicle: saline with Tween-80 100 % of control | dose: 400.0 mg/kg/injection, schedule: Q01DX009 (ip), vehicle: saline with Tween-80 119 % of control

NC(=O)C1=NOC(C(N)=O)C1C1OC(CO)C(O)C1O (centres undefined)
inactive: dose: 25.0 mg/kg/injection, schedule: Q01DX005 (ip), vehicle: other 98 % of control | dose: 50.0 mg/kg/injection, schedule: Q01DX005 (ip), vehicle: other 97 % of control | dose: 100.0 mg/kg/injection, schedule: Q01DX005 (ip), vehicle: other 95 % of control | dose: 200.0 mg/kg/injection, schedule: Q01DX005 (ip), vehicle: other 105 % of control

CCOC1(NC(=O)N(C)C)C2CCCCC21 (centres undefined)
inactive: [4] 98 % of control | [5] 104 % of control | dose: 200.0 mg/kg/injection, schedule: Q01DX009 (ip), vehicle: Klucel (hydroxypropylcellulose) (HPC) 101 % of control

C[N+](C)(C)c1ncnc2c1ncn2C1CC(O)C(CO)O1 (centres undefined)
inactive: dose: 50.0 mg/kg/injection, schedule: Q01DX005 (ip), vehicle: saline 95 % of control | dose: 100.0 mg/kg/injection, schedule: Q01DX005 (ip), vehicle: saline 98 % of control | dose: 200.0 mg/kg/injection, schedule: Q01DX005 (ip), vehicle: saline 101 % of control

Cc1cc2cc(CN3C(=O)c4ccccc4C3=O)ccc2[nH]1
inactive: dose: 100.0 mg/kg/injection, schedule: Q01DX001 (ip), vehicle: Klucel (hydroxypropylcellulose) (HPC) 100 % of control | dose: 200.0 mg/kg/injection, schedule: Q01DX001 (ip), vehicle: Klucel (hydroxypropylcellulose) (HPC) 93 % of control | dose: 400.0 mg/kg/injection, schedule: Q01DX001 (ip), vehicle: Klucel (hydroxypropylcellulose) (HPC) 93 % of control

Cc1nc2c(O)ccc(O)c2nc1C
inactive: dose: 3.75 mg/kg/injection, schedule: Q01DX009 (ip), vehicle: saline with Tween-80 99 % of control | dose: 3.75 mg/kg/injection, schedule: Q04DX003 (ip), vehicle: saline with Tween-80 100 % of control | dose: 7.5 mg/kg/injection, schedule: Q01DX009 (ip), vehicle: saline with Tween-80 94 % of control | dose: 7.5 mg/kg/injection, schedule: Q04DX003 (ip), vehicle: saline with Tween-80 99 % of control | dose: 15.0 mg/kg/injection, schedule: Q01DX009 (ip), vehicle: saline with Tween-80 88 % of control | dose: 15.0 mg/kg/injection, schedule: Q04DX003 (ip), vehicle: saline with Tween-80 106 % of control | dose: 30.0 mg/kg/injection, schedule: Q01DX009 (ip), vehicle: saline with Tween-80 95 % of control | dose: 30.0 mg/kg/injection, schedule: Q04DX003 (ip), vehicle: saline with Tween-80 109 % of control | dose: 60.0 mg/kg/injection, schedule: Q01DX009 (ip), vehicle: saline with Tween-80 110 % of control | dose: 60.0 mg/kg/injection, schedule: Q04DX003 (ip), vehicle: saline with Tween-80 109 % of control

COc1cc2cc3c4cc(OC)c(OC)cc4cc[n+]3c(C)c2cc1OC (tested in a mixture with another compound)
active: [6] 154 % of control | [7] 158 % of control and 163 % of control and 172 % of control | [8] 191 % of control | [9] 200 % of control | dose: 50.0 mg/kg/injection, schedule: Q04DX003 (ip), vehicle: water 152 % of control and 171 % of control | dose: 100.0 mg/kg/injection, schedule: Q01DX009 (ip), vehicle: water 200 % of control | dose: 100.0 mg/kg/injection, schedule: Q04DX003 (ip), vehicle: saline 150 % of control | dose: 100.0 mg/kg/injection, schedule: Q04DX003 (ip), vehicle: water 158 % of control and 162 % of control and 187 % of control | dose: 200.0 mg/kg/injection, schedule: Q04DX003 (ip), vehicle: saline with Tween-80 183 % of control | dose: 200.0 mg/kg/injection, schedule: Q04DX003 (ip), vehicle: saline 184 % of control
inactive: dose: 16.0 mg/kg/injection, schedule: Q01DX009 (ip), vehicle: water 106 % of control | dose: 16.0 mg/kg/injection, schedule: Q01DX009 (sc), vehicle: water 108 % of control | dose: 25.9 mg/kg/injection, schedule: Q04DX003 (ip), vehicle: water 118 % of control | dose: 32.0 mg/kg/injection, schedule: Q01DX009 (ip), vehicle: water 105 % of control | dose: 32.0 mg/kg/injection, schedule: Q01DX009 (sc), vehicle: water 118 % of control | dose: 43.2 mg/kg/injection, schedule: Q04DX003 (ip), vehicle: water 123 % of control | dose: 64.0 mg/kg/injection, schedule: Q01DX009 (sc), vehicle: water 123 % of control | [10] 90 % of control | dose: 128.0 mg/kg/injection, schedule: Q01DX009 (ip), vehicle: water 118 % of control | dose: 128.0 mg/kg/injection, schedule: Q01DX009 (sc), vehicle: water 115 % of control | dose: 256.0 mg/kg/injection, schedule: Q01DX009 (ip), vehicle: water 105 % of control | dose: 512.0 mg/kg/injection, schedule: Q01DX009 (ip), vehicle: water 89 % of control

NS(=O)(=O)c1ccc2c(=O)c(C(=O)O)c[nH]c2c1
inactive: [11] 98 % of control | [12] 92 % of control | [13] 92 % of control | [8] 101 % of control | [10] 96 % of control

CC(Cl)CN=NNc1ccc(C#N)cc1 (centres undefined)
inactive: dose: 12.5 mg/kg/injection, schedule: Q01DX009 (ip), vehicle: distilled water + Tween-80 99 % of control | dose: 25.0 mg/kg/injection, schedule: Q01DX009 (ip), vehicle: distilled water + Tween-80 100 % of control | dose: 50.0 mg/kg/injection, schedule: Q01DX009 (ip), vehicle: distilled water + Tween-80 100 % of control | dose: 100.0 mg/kg/injection, schedule: Q01DX009 (ip), vehicle: distilled water + Tween-80 104 % of control | dose: 200.0 mg/kg/injection, schedule: Q01DX009 (ip), vehicle: distilled water + Tween-80 119 % of control

CSc1nc(SC)c2c(CN=[N+]=[N-])c(Br)n(Cc3ccccc3)c2n1
inactive: dose: 3.13 mg/kg/injection, schedule: Q01DX001 (ip), vehicle: saline with Tween-80 98 % of control | dose: 6.25 mg/kg/injection, schedule: Q01DX001 (ip), vehicle: saline with Tween-80 86 % of control | dose: 25.0 mg/kg/injection, schedule: Q01DX001 (ip), vehicle: saline with Tween-80 86 % of control

O=NNc1nc(-c2ccccc2)ns1
inactive: dose: 1.56 mg/kg/injection, schedule: Q01DX009 (ip), vehicle: water 100 % of control | dose: 3.12 mg/kg/injection, schedule: Q01DX009 (ip), vehicle: water 100 % of control and 101 % of control | dose: 6.25 mg/kg/injection, schedule: Q01DX009 (ip), vehicle: water 104 % of control and 97 % of control | [6] 100 % of control and 97 % of control | [7] 101 % of control and 97 % of control | [9] 100 % of control

COCCNCCN1CCN(CCCN2c3ccccc3Sc3ccc(C(F)(F)F)cc32)CC1
inactive: [11] 104 % of control | [12] 100 % of control | [13] 107 % of control
